The results in this text go back to ChEMBL document CHEMBL1201862, “PubChem BioAssay data set” (2004).

Molecules are shown by their SMILES.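 48-hour exposure; five concentrations; linearly interpolated endpoints. GI50: concentration for 50% inhibition of growth.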 Active and inactive are the calls of the source. Cut-off read from the data, not from the text of the source: active = GI50 up to about 1.1 µM and inactive = higher.

Common to all, as to assay: NCI anticancer screen, dose series, 48 h
Assay [1] has as its system ACHN.
The subject of assay [2] is DU-145.
For assay [3], the system named is EKVX.
Assay [4] concerns HCC 2998.
Assay [5] concerns HCT-116.
Assay [6] has as its system HL-60.
The subject of assay [7] is MOLT-4.
Assay [8] concerns Malme-3M.
Assay [9] deals with NCI-H226.
The subject of assay [10] is NCI-H460.
In assay [11] the test system is OVCAR-3.
In assay [12] the test system is OVCAR-5.
The test system of assay [13] is PC-3.
Assay [14] relates to RXF 393.
The test system of assay [15] is SF-295.
For assay [16], the system named is SN12C.
Assay [17] deals with SNB-19.
The subject of assay [18] is UACC-257.

Turning to `Cc1cc(S(=O)(=O)Nc2nc(N)nc(N(C)C)n2)c(S)cc1Cl`, the GI50 in assay [1], in assay [2], in [3], in assay [4], in assay [5] and in assay [6] was > 10 µM (inactive) in each case. For the same compound, the GI50 in assay [7], in assay [8], in assay [9], in [10], in assay [11] and in assay [12] was > 10 µM (inactive) throughout. In addition, the GI50 in assay [13], in [14], in assay [15], in assay [16], in assay [17] and in assay [18] was > 10 µM (inactive) in each case.

Consider `CC(=O)Nc1ccc2c(c1)/C(=N/c1ccc(C(=O)O)cc1)c1ccccc1-2`, for which the GI50 was > 100 µM (inactive) in [1]; > 100 µM (inactive) in assay [2]; 45.9 µM (inactive) in assay [3]; > 100 µM (inactive) in assay [4]; > 100 µM (inactive) in [5]; < 0.01 µM (active) in assay [6]. Besides, the GI50 in [7] was 32.1 µM (inactive); in assay [8] it was > 100 µM (inactive); in [9], 39.5 µM (inactive); in assay [10] it was 44.7 µM (inactive); in assay [11], 99.8 µM (inactive); in assay [12] it was > 100 µM (inactive). Also, the GI50 was 83.6 µM (inactive) in assay [13]; > 100 µM (inactive) in assay [14]; 96.4 µM (inactive) in [15]; > 100 µM (inactive) in [16]; 55.6 µM (inactive) in [17]; > 100 µM (inactive) in assay [18].

For `COc1cc(/C=N/N=C2NCCCN2)ccc1O`, the GI50 in [1], in assay [2], in assay [3], in [4], in assay [5] and in assay [6] was > 100 µM (inactive) throughout. Moreover, the GI50 in assay [7] is > 100 µM (inactive); in [8] it was 95.7 µM (inactive); in assay [9] it was > 100 µM (inactive); in assay [10], 82.8 µM (inactive); in assay [11] it was > 100 µM (inactive); in [12], > 100 µM (inactive). Also, the GI50 in assay [13], in assay [14], in [15], in assay [16], in assay [17] and in [18] was > 100 µM (inactive) throughout.

Take `CCO/N=C(/CC)c1ccc(Br)s1`: the GI50 in [1] is > 100 µM (inactive); in assay [2], > 100 µM (inactive); in assay [3], > 100 µM (inactive); in assay [4], > 100 µM (inactive); in assay [5], > 100 µM (inactive); in assay [6], 33 µM (inactive). Further, the GI50 is 53.5 µM (inactive) in assay [7]; > 100 µM (inactive) in [8]; > 100 µM (inactive) in assay [9]; > 100 µM (inactive) in [10]; > 100 µM (inactive) in [11]; > 100 µM (inactive) in assay [12]. Also, the GI50 in assay [13], in [14], in [15], in assay [16], in [17] and in [18] was > 100 µM (inactive) in each case.

Regarding `COc1ccc(/C(=N/OCCCC(=O)O)c2cccs2)cc1`, the GI50 in assay [1], in assay [2], in [3], in assay [4], in assay [5] and in [6] was > 100 µM (inactive) in each case. Moreover, the GI50 in assay [7], in [8], in assay [9], in assay [10], in assay [11] and in assay [12] was > 100 µM (inactive) throughout. Further, the GI50 in assay [13], in assay [14], in assay [15], in [16], in assay [17] and in [18] was > 100 µM (inactive) throughout.

`O=C(CCCN1CCc2[nH]c3cc(F)ccc3c2C1)c1ccc(F)cc1`: the GI50 in assay [1] is 13.8 µM (inactive); in assay [2], 13.3 µM (inactive); in [3] it was 14.8 µM (inactive); in assay [4], 3.33 µM (inactive); in [5], 11.8 µM (inactive); in [6] it was 11.1 µM (inactive). Further, the GI50 in assay [7] was 13 µM (inactive); in assay [8], 12.6 µM (inactive); in [9] it was 18.7 µM (inactive); in assay [10], 10.9 µM (inactive); in assay [11], 14.2 µM (inactive); in assay [12] it was 12.2 µM (inactive). Moreover, the GI50 was 12.9 µM (inactive) in assay [13]; 14.4 µM (inactive) in [14]; 17.4 µM (inactive) in assay [15]; 14.3 µM (inactive) in assay [16]; > 100 µM (inactive) in [17]; 15.4 µM (inactive) in assay [18].

For the compound `O=C1C(Cl)C(c2cccc(Br)c2)N1c1c(O)c(Cl)cc(Br)c1Cl` (stereo unspecified), the GI50 is 15.2 µM (inactive) in assay [1]; 14.9 µM (inactive) in [2]; 17 µM (inactive) in assay [3]; 11.1 µM (inactive) in [4]; 14.5 µM (inactive) in [5]; 26.4 µM (inactive) in assay [6]. Also, the GI50 in assay [7] is 13 µM (inactive); in assay [8] it was 19.1 µM (inactive); in [9] it was 18.2 µM (inactive); in [10], 14.1 µM (inactive); in assay [11], 16.1 µM (inactive); in [12], 26.7 µM (inactive). Moreover, the GI50 was 18 µM (inactive) in assay [13]; 10.9 µM (inactive) in [14]; 17.4 µM (inactive) in assay [15]; 14.7 µM (inactive) in assay [16]; 1.38 µM (inactive) in assay [17]; 10.8 µM (inactive) in assay [18].

In the case of `COC(=O)C(C)(Cc1ccc2c(c1)nnn2C(C)=O)NC(C)=O` (stereo unspecified), the GI50 in assay [1], in assay [2], in [3], in [4], in [5] and in assay [6] was > 100 µM (inactive) throughout. The GI50 in [7], in assay [8], in assay [9], in assay [10], in assay [11] and in assay [12] was > 100 µM (inactive) each time. Further, the GI50 in [13], in assay [14], in assay [15], in [17] and in assay [18] was > 100 µM (inactive) each time.

On to `CC(C)(C)c1ccc(O)c(C(O)c2ccccn2)c1` (stereo unspecified), for which the GI50 in assay [1] is > 100 µM (inactive); in [2], > 100 µM (inactive); in assay [3] it was 54.1 µM (inactive); in assay [4], 34.4 µM (inactive); in assay [5], 61.4 µM (inactive); in assay [6], 45.1 µM (inactive). Also, the GI50 in assay [7] is 54.2 µM (inactive); in assay [8] it was 37.6 µM (inactive); in [9], 85.1 µM (inactive); in assay [10] it was 48.5 µM (inactive); in assay [11], > 100 µM (inactive); in assay [12] it was 31.5 µM (inactive). Also, the GI50 in assay [13] was 86.1 µM (inactive); in assay [14] it was 66.8 µM (inactive); in assay [15], 57.5 µM (inactive); in [16] it was 74 µM (inactive); in [17] it was > 100 µM (inactive).

With `Cc1sc2ncnc(NCCc3ccccc3)c2c1C`, the GI50 in [1] is 12.4 µM (inactive); in assay [2] it was 18.8 µM (inactive); in assay [3], 1.68 µM (inactive); in assay [4], 15.1 µM (inactive); in assay [5] it was 6.04 µM (inactive); in [6], 9.02 µM (inactive). The GI50 in assay [7] is 14.9 µM (inactive); in [8], 17.5 µM (inactive); in assay [9], 11.6 µM (inactive); in assay [10] it was 8.99 µM (inactive); in [11], 14.2 µM (inactive); in [12] it was 15.4 µM (inactive). In addition, the GI50 in assay [13] was 17.3 µM (inactive); in [14] it was 12.3 µM (inactive); in assay [15], 4.78 µM (inactive); in assay [16] it was 10.6 µM (inactive); in assay [17] it was 23.7 µM (inactive); in assay [18], 1.04 µM (active).

Take `COc1c(Br)cc(/C=C(\C#N)c2ccccn2)cc1Br`: the GI50 in assay [1] is > 100 µM (inactive); in assay [2], 37.8 µM (inactive); in assay [3], 1.26 µM (inactive); in assay [4], > 100 µM (inactive); in assay [5], 30.3 µM (inactive); in [6], > 100 µM (inactive). The GI50 was > 100 µM (inactive) in assay [7]; 44.7 µM (inactive) in [8]; 48.4 µM (inactive) in assay [9]; > 100 µM (inactive) in assay [10]; > 100 µM (inactive) in [11]; > 100 µM (inactive) in assay [12]. Further, the GI50 was > 100 µM (inactive) in assay [13]; 22.8 µM (inactive) in assay [14]; 19.2 µM (inactive) in assay [15]; > 100 µM (inactive) in assay [16]; > 100 µM (inactive) in assay [17]; > 100 µM (inactive) in assay [18].
